US20110009379A1, “INDOLINONE COMPOUND” (ASTELLAS PHARMA INC., priority 2008, published 2011)

Assays:
gastric emptying of rats = experiment: Activity to gastric emptying of TRPA1 agonist (phenol red, rats); assay type: in vivo; conditions: Rattus norvegicus; male wistar rats, oral administration, versus control animals; read-out: ED50 (amount which suppresses 50% of gastric emptying)
Source text: When EC cell is stimulated by content of a gastrointestinal tract, 5-HT is secreted. The secreted 5-HT promotes the secretion or motility through a 5-HT receptor present in intestinal nerve plexus or gastrointestinal smooth muscle. The secreted 5-HT is instantly taken into a cell by its specific transporter, and is metabolized by […]. Thus, while it is considerably difficult to directly measure the secreted 5-HT concentration, it has been known that gastric emptying is delayed as a physiological activity through 5-HT in rodents. In order to verify in vivo activity through 5-HT of the compound to be tested, activity to gastric emptying of rats by various TRPA1 agonists was studied.
In the experiment, male wistar rats (body weight 290 to 360 g) were used. The animals were purchased from Japan SLC (Shizuoka). The animals were allowed to drink water freely under a constitutive environment.
5 minutes after the medicine was orally administered, 0.05% phenol red solution (1.5 mL) was orally administered. After 15 minutes, rats were put painlessly to death by cervical vertebral dislocation, their stomachs were exenterated, and phenol red was eluted with 0.1M aqueous NaOH solution (5 mL) from the exenterated stomachs. 20% aqueous trichloroacetic acid solution (0.1 mL) was added to the NaOH solution (0.5 mL), followed by stirring and centrifugation at 15,000 rpm, at 4° C., for 10 minutes. 0.5M aqueous NaOH solution (0.2 mL) was added to the supernatant (0.05 mL), followed by stirring, and absorbance at 560 nm was measured using an absorption spectrometer (spectrometer spectramax M2; Molecular Devices, CA, USA).
A gastric emptying was calculated by the following calculating formula.
Gastric emptying (%)=100−(A/B)×100
A: amount of phenol red remaining in stomach
B: amount of phenol red remaining in stomach just after administering phenol red
ED50 values (amount of the compound to be tested which suppresses 50% of gastric emptying, with respect to the control animals without administering the compound to be tested) of some of the compounds of the formula (I) are shown in Table 2. In this connection, comparative compound 1 and comparative compound 2 are (3E)-1-methyl-3-(2-oxopropyridene)-1,3-dihydro-2H-indol-2-one, and (3E)-3-(2-oxopropyridene)-1-prop-2-in-1-yl-1,3-dihydro-2H-indol-2-one described in Non Patent Document 4 above, and has the following chemical structures, respectively.

[1] = system: delay of discharging time induced by loperamide in mice; experiment: Loperamide induced constipation model (glass bead discharging time); assay type: in vivo; conditions: Mus musculus; mice (Slc:ddY, male), 0.3 mg/kg loperamide subcutaneously, compound orally; read-out: ED50 (amount which suppresses 50% of the delay of discharging time induced by loperamide)
Experimental: It has been known that loperamide as a μ opioid receptor agonist causes convulsive contraction in intestinal tracts. Thus, a delay in the intestinal transport ability due to loperamide is thought as a constipation IBS model.
Mice (Slc:ddY, five-week old, male) fasted from the previous evening of the experiment. On the day of the experiment, the mice were acclimatized to cages for measurement for 1 hour or more, and 0.3 mg/kg of loperamide was administered subcutaneously. After 30 minutes, a compound to be tested was administered orally, ether anesthesia was applied to the mice immediately thereafter, glass beads having diameter of 3 mm were inserted to 2 cm from anus. The mice were returned to the cages for measurement, and the time from waking to discharging of the glass beads was measured. Furthermore, the compound to be tested was dissolved into 10% DMSO, 10% cremophor, and 80% distillated water.
As a result, it has been recognized that there was a delay in the beads discharging time of the loperamide administration group (vehicle group) in comparison with the loperamide non-administration group (control group).
ED50 values (amount of the compound to be tested which suppresses 50% of the delay of discharging time induced by loperamide) of some of the compounds of the formula (I) are shown in Table 3. In this connection, comparative compound 1 is the same compound as comparative compound 1 in Test Example 4.

melting point: 151 to 153 °C
SMILES: O=C(O)/C=C1/C(=O)N(CC2CCCC2)c2c(F)cccc21 [Example 28, (2E)-[1-(cyclopentylmethyl)-7-fluoro-2-oxo-1,2-dihydro-3H-indol-3-ylidene]acetic acid]
ED50 (gastric emptying of rats): 0.44 mg/kg | ED50 [1]: 0.1 mg/kg
